Some test systems named below: COLO 205; HCC 2998; HCT-15; HL-60; HOP-92; HT-29; MDA-N; NCI-H23; OVCAR-8; RXF 393; SF-268; SF-295; SK-MEL-28; SN12C; SNB-75; UACC-257; Malme-3M; NCI-H522; PC-3; SR.
Assay in all cases: NCI-60 cell line screen, 48 h

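Interpolation was linear, between the two tested concentrations surrounding the appropriate level; five concentrations were tested over 48 hours in 96-well plates. GI50 = concentration required for 50% inhibition of growth.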 Calls of active or inactive are those of the source. Cut-off read from the data, not from the text of the source: active = GI50 up to about 1.1 µM and inactive = higher. Some results are limits rather than exact numbers.

Regarding `CC(=O)/C(=C/n1ccc(=O)[nH]c1=S)C(=O)Nc1ccccc1C`, the GI50 is > 100 µM (inactive) in the assay on COLO 205; > 100 µM (inactive) in the assay with HCC 2998; above 100 µM in the assay with HCT-15; 82.6 µM (inactive) with HL-60; > 100 µM (inactive) in the assay with HOP-92; > 100 µM (inactive) with HT-29. In addition, the GI50 in the assay with MDA-N, in the assay on NCI-H23, in the assay with OVCAR-8, in the assay with RXF 393, in the assay on SF-268 and in the assay with SF-295 was > 100 µM (inactive) throughout. The GI50 in the assay with SK-MEL-28, with SN12C, in the assay on SNB-75 and with UACC-257 was > 100 µM (inactive) throughout.
Turning to `CNC1=Nc2ccccc2C(=S)N2CSC[C@@H]12`, the GI50 in the assay on COLO 205 is > 100 µM (inactive); with HCC 2998 it was > 100 µM (inactive); in the assay with HCT-15, above 100 µM; in the assay with HOP-92, 50.9 µM (inactive); in the assay on HT-29, > 100 µM (inactive); in the assay with Malme-3M, > 100 µM (inactive). The GI50 in the assay on NCI-H23, with NCI-H522, in the assay with OVCAR-8, in the assay on PC-3, in the assay with RXF 393 and in the assay with SF-268 was > 100 µM (inactive) throughout. Moreover, the GI50 in the assay with SF-295 was > 100 µM (inactive); in the assay on SK-MEL-28, > 100 µM (inactive); in the assay on SN12C it was > 100 µM (inactive); with SR, 7.55 µM (inactive).
As for `Cc1c/c(=N/NC(=O)c2ccncc2)n2nc(N)sc2n1`, the GI50 in the assay on COLO 205 was > 100 µM (inactive); with HCC 2998, > 100 µM (inactive); in the assay with HCT-15, above 100 µM; in the assay with HL-60 it was > 100 µM (inactive); with HOP-92 it was > 100 µM (inactive); in the assay on HT-29 it was > 100 µM (inactive). Besides, the GI50 in the assay with NCI-H23, in the assay with NCI-H522, in the assay with OVCAR-8, in the assay on PC-3, in the assay on RXF 393 and in the assay on SF-295 was > 100 µM (inactive) in each case. Further, the GI50 with SK-MEL-28 is > 100 µM (inactive); in the assay on SN12C it was > 100 µM (inactive); in the assay with SNB-75, 40.2 µM (inactive); in the assay with SR, > 100 µM (inactive); in the assay with UACC-257, > 100 µM (inactive).
As to `C1CSCCCSCCSCCCSC1`, the GI50 in the assay on COLO 205 is > 100 µM (inactive); in the assay on HCC 2998, > 100 µM (inactive); with HCT-15, above 100 µM; in the assay with HOP-92 it was > 100 µM (inactive); in the assay on HT-29, > 100 µM (inactive); with MDA-N, > 100 µM (inactive). Moreover, the GI50 was > 100 µM (inactive) in the assay on NCI-H23; 67.9 µM (inactive) with NCI-H522; > 100 µM (inactive) in the assay on OVCAR-8; > 100 µM (inactive) in the assay with PC-3; > 100 µM (inactive) in the assay with RXF 393; > 100 µM (inactive) in the assay with SF-268. Moreover, the GI50 in the assay on SF-295, in the assay on SK-MEL-28, in the assay on SN12C, in the assay with SNB-75 and with UACC-257 was > 100 µM (inactive) throughout.
With `NC1=C(N2CCCCC2)C(=O)NC2=N/C(=C\c3ccccc3)C(=O)N21`, the GI50 in the assay with COLO 205 is > 100 µM (inactive); in the assay with HCC 2998, > 100 µM (inactive); with HCT-15 it was above 100 µM; with HL-60, 32 µM (inactive); in the assay with HOP-92, > 100 µM (inactive); with HT-29, > 100 µM (inactive). In addition, the GI50 was > 100 µM (inactive) in the assay with MDA-N; > 100 µM (inactive) with Malme-3M; > 100 µM (inactive) in the assay on NCI-H23; 63.2 µM (inactive) with NCI-H522; > 100 µM (inactive) in the assay with OVCAR-8; > 100 µM (inactive) in the assay with RXF 393. Moreover, the GI50 in the assay on SF-268 was > 100 µM (inactive); with SF-295 it was > 100 µM (inactive); with SK-MEL-28, > 100 µM (inactive); with SN12C, > 100 µM (inactive); in the assay with SNB-75, > 100 µM (inactive); in the assay with SR it was 43.7 µM (inactive). For the same compound, the GI50 in the assay on UACC-257 is > 100 µM (inactive).
In the case of `CC(=O)OC1CC2CCC1(C)C2(C)C` (configuration not stated), the GI50 was > 100 µM (inactive) with COLO 205; > 100 µM (inactive) in the assay with HCC 2998; above 100 µM with HCT-15; > 100 µM (inactive) with HL-60; > 100 µM (inactive) in the assay with HT-29; > 100 µM (inactive) in the assay with MDA-N. The GI50 with Malme-3M, in the assay with NCI-H23, with NCI-H522, in the assay on OVCAR-8, in the assay on PC-3 and with RXF 393 was > 100 µM (inactive) each time. The GI50 in the assay with SF-268, in the assay with SF-295, with SK-MEL-28, in the assay on SN12C, with SNB-75 and in the assay with UACC-257 was > 100 µM (inactive) each time.
Consider `COC(=O)C1CCC(=S)N1C(C)=O` (configuration not stated), for which the GI50 in the assay with COLO 205 was > 100 µM (inactive); with HCC 2998, > 100 µM (inactive); in the assay on HCT-15 it was above 100 µM; in the assay with HOP-92, > 100 µM (inactive); in the assay with HT-29, > 100 µM (inactive); with MDA-N, > 100 µM (inactive). Further, the GI50 in the assay with Malme-3M, in the assay with NCI-H23, in the assay on NCI-H522, in the assay with OVCAR-8, in the assay with PC-3 and with RXF 393 was > 100 µM (inactive) throughout. Besides, the GI50 in the assay with SF-268, with SF-295, in the assay with SK-MEL-28, in the assay on SNB-75 and in the assay on UACC-257 was > 100 µM (inactive) throughout.
In the case of `O=[N+]([O-])c1cc2c(cc1/C=N/n1c(CO)nc3ccccc31)OCO2`, the GI50 in the assay with COLO 205 was > 100 µM (inactive); in the assay on HCT-15 it was above 100 µM; in the assay on HL-60, > 100 µM (inactive); with HOP-92, > 100 µM (inactive); in the assay on HT-29, > 100 µM (inactive); in the assay on MDA-N, > 100 µM (inactive). The GI50 in the assay on Malme-3M, in the assay on NCI-H23, in the assay with OVCAR-8, in the assay on PC-3, in the assay with RXF 393 and in the assay with SF-268 was > 100 µM (inactive) each time. Further, the GI50 in the assay on SF-295, with SK-MEL-28, in the assay with SN12C, with SNB-75 and in the assay on UACC-257 was > 100 µM (inactive) throughout.
Turning to `CC(=O)N1CC(=O)N2C(=O)/C(=C/c3ccc(Cl)cc3)N=C12`, the GI50 with COLO 205 was > 100 µM (inactive); in the assay with HCC 2998, > 100 µM (inactive); in the assay on HCT-15, above 100 µM; in the assay with HL-60, 27.7 µM (inactive); in the assay with HOP-92, > 100 µM (inactive); with HT-29, > 100 µM (inactive). The GI50 in the assay on MDA-N, in the assay with Malme-3M, in the assay on NCI-H23, in the assay with OVCAR-8, with PC-3 and with RXF 393 was > 100 µM (inactive) each time. Further, the GI50 in the assay on SF-268, in the assay with SF-295, with SK-MEL-28, in the assay on SN12C, in the assay on SNB-75 and in the assay on UACC-257 was > 100 µM (inactive) in each case.
Regarding `NS(=O)(=O)c1nnc(NC(=O)/C=C/C(=O)O)s1`, the GI50 is > 100 µM (inactive) with COLO 205; > 100 µM (inactive) with HCC 2998; above 100 µM in the assay with HCT-15; > 100 µM (inactive) in the assay with HL-60; > 100 µM (inactive) in the assay on HOP-92; > 100 µM (inactive) with HT-29. The GI50 in the assay on MDA-N, in the assay with Malme-3M, in the assay with NCI-H23, with NCI-H522, in the assay on OVCAR-8 and in the assay on RXF 393 was > 100 µM (inactive) each time. The GI50 in the assay with SF-268, with SF-295, with SK-MEL-28, in the assay with SN12C, with SR and with UACC-257 was > 100 µM (inactive) throughout.
For `O=C(NCCO)Nc1c(C(F)(F)F)cc(-c2ccccc2)[nH]c1=O`, the GI50 in the assay on COLO 205 is > 100 µM (inactive); with HCC 2998 it was > 100 µM (inactive); in the assay on HCT-15 it was above 100 µM; in the assay with HL-60 it was 19.8 µM (inactive); with HOP-92, > 100 µM (inactive); in the assay on HT-29 it was > 100 µM (inactive). For the same compound, the GI50 with MDA-N, with NCI-H23, with OVCAR-8, with PC-3, with RXF 393 and in the assay on SF-295 was > 100 µM (inactive) each time. Also, the GI50 with SK-MEL-28, in the assay on SN12C and with UACC-257 was > 100 µM (inactive) throughout.
As to `O=C(Nc1ccccc1)c1cc2cc(CCl)ccc2oc1=O`, the GI50 in the assay on COLO 205 is > 100 µM (inactive); with HCC 2998 it was > 100 µM (inactive); in the assay with HCT-15, above 100 µM; in the assay on HL-60, 41.6 µM (inactive); in the assay on HOP-92, > 100 µM (inactive); in the assay on HT-29 it was 8.57 µM (inactive). Also, the GI50 in the assay with Malme-3M was > 100 µM (inactive); in the assay with NCI-H23, 16.5 µM (inactive); in the assay with NCI-H522 it was 70.3 µM (inactive); in the assay with OVCAR-8 it was > 100 µM (inactive); in the assay on PC-3, > 100 µM (inactive); in the assay on RXF 393, 33.4 µM (inactive). Besides, the GI50 in the assay with SF-268 was 47 µM (inactive); in the assay with SF-295, 45.5 µM (inactive); with SK-MEL-28, > 100 µM (inactive); in the assay on SN12C, > 100 µM (inactive); with SNB-75, 34.7 µM (inactive); with SR, 41.5 µM (inactive). The GI50 in the assay with UACC-257 is > 100 µM (inactive).

The values above are taken from ChEMBL document CHEMBL1201862, “PubChem BioAssay data set” (2004).
